Experiments:
[1] = test system: DYRK1A; set-up: method as in Khan et al., 2006; Yang et al., 2009; conditions: ref Khan et al., 2006; Yang et al., 2009; cited from earlier work
[2] = test system: vimentin; set-up: method as in Khan et al., 2006; Yang et al., 2009; conditions: ref Khan et al., 2006; Yang et al., 2009; cited from earlier work
[3] = biological target: laminin receptor; set-up: method as in Khan et al., 2006; Yang et al., 2009; conditions: ref Khan et al., 2006; Yang et al., 2009; cited from earlier work
[4] = biological target: CDK2/cyclin A (Homo sapiens, UniProt P24941); experiment: Recombinant protein kinase assay, CDK2/cyclin A; type: biochemical; conditions: 15 µM ATP
[5] = biological target: CDK5/p25 (Homo sapiens, UniProt Q00535); experiment: Recombinant protein kinase assay, CDK5/p25; type: biochemical; conditions: 15 µM ATP
[6] = biological target: T1, CDK9/cyclin T (Homo sapiens, UniProt P50750); experiment: Recombinant protein kinase assay, CDK9/cyclin T; type: biochemical; conditions: 15 µM ATP
T1 construct: made in house; host or cells: insect cells

[7] = biological target: CLK2 (Mus musculus, UniProt O35491); experiment: Recombinant protein kinase assay, CLK2; type: biochemical; conditions: 15 µM ATP; read-out: IC50 CLK2
[8] = biological target: CLK3 (Mus musculus, UniProt O35492); experiment: Recombinant protein kinase assay, CLK3; type: biochemical; conditions: 15 µM ATP; read-out: IC50 CLK3
[9] = biological target: DYRK1A (Homo sapiens, UniProt Q13627); experiment: Recombinant protein kinase assay, DYRK1A; type: biochemical; conditions: 15 µM ATP
[10] = biological target: DYRK3 (Homo sapiens, UniProt O43781); experiment: Recombinant protein kinase assay, DYRK3; type: biochemical; conditions: 15 µM ATP
[11] = biological target: T2, CK2 (Homo sapiens, UniProt P68400); experiment: Recombinant protein kinase assay, CK2; type: biochemical; conditions: 15 µM ATP
T2 construct: Cochet

[12] = test system: Tg(Dyrk1a) mice; experiment: Novel object recognition (NOR) test in Tg(Dyrk1a) mice; type: in vivo, mouse; conditions: daily i.p. treatment for 19 days
[13] = biological target: T3, DYRK1A (Mus musculus, UniProt Q61214); experiment: Brain DYRK1A catalytic activity after treatment, Tg(Dyrk1a) mice; type: in vivo; conditions: 19 days of treatment
T3 construct: DYRK1A was purified from brain extracts by immunoprecipitation; from tissue; host or cells: mouse brain (wt, Tg(Dyrk1a), Ts65Dn)
Method: Protein kinase assays to measure the catalytic activity of DYRK1A in the brains of the animals treated with or without drugs were performed as follows: frozen half brains were homogenized in lysis buffer (1.2 ml/half brain) using Precellys® homogenizer tubes. After centrifugation at 2800 g for 2×15 s, 1 mg brain extract was incubated with 2 µg DYRK1A (H00001859 M01, Interchim) or GSK3-β (MBS8508391, Emelca Bioscience, France) antibodies at 4°C for 1 h under gentle rotation. Then, 20 µl protein G agarose beads (Thermo Fisher Scientific, France), previously washed three times with bead buffer (50 mM Tris pH 7.4, 5 mM NaF, 250 mM NaCl, 5 mM EDTA, 5 mM EGTA, 0.1% Nonidet P-40 and protease inhibitor cocktail from Roche, France), were added to the mix and gently rotated at 4°C for 30 min. After a 1 min spin at 10,000 g and removal of the supernatant, the pelleted immune complexes were washed three times with bead buffer, and a last time with Buffer C (60 mM β-glycerophosphate, 30 mM p-nitrophenolphosphate, 25 mM Mops pH 7.2, 5 mM EGTA, 15 mM MgCl2, 2 mM dithiothreitol, 0.1 mM sodium orthovanadate, 1 mM phenylphosphate, protease inhibitor cocktail). DYRK1A or GSK-3 immobilized on beads were assayed in buffer C as described in the Supplementary Materials and Methods with Woodtide ([…]) (1.5 µg/assay) or GSK3-tide ([…]pSED-EEE, where pS stands for phosphorylated serine) as substrates.

[14] = biological target: CLK1 (Mus musculus, UniProt P22518); experiment: Recombinant protein kinase assay, CLK1; type: biochemical; conditions: 15 µM ATP; read-out: IC50 CLK1
[15] = biological target: CLK4 (Mus musculus, UniProt O35493); experiment: Recombinant protein kinase assay, CLK4; type: biochemical; conditions: 15 µM ATP
[16] = biological target: DYRK1B (Homo sapiens, UniProt Q9Y463); experiment: Recombinant protein kinase assay, DYRK1B; type: biochemical; conditions: 15 µM ATP
[17] = biological target: DYRK2 (Homo sapiens, UniProt Q92630); experiment: Recombinant protein kinase assay, DYRK2; type: biochemical; conditions: 15 µM ATP
[18] = biological target: PIM1 (Homo sapiens, UniProt P11309); experiment: Recombinant protein kinase assay, PIM1; type: biochemical; conditions: 15 µM ATP
Sequence of PIM1 (P11309 whole entry): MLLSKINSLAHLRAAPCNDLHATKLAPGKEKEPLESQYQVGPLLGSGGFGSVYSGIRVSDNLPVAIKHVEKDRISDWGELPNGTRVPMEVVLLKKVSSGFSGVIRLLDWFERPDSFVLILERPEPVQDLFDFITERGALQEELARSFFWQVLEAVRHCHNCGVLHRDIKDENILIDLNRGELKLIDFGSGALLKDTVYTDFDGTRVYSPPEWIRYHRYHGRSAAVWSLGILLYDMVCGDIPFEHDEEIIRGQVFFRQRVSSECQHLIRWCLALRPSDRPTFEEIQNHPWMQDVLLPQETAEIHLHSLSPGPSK

Sequence of CDK5/p25 (Q00535 whole entry): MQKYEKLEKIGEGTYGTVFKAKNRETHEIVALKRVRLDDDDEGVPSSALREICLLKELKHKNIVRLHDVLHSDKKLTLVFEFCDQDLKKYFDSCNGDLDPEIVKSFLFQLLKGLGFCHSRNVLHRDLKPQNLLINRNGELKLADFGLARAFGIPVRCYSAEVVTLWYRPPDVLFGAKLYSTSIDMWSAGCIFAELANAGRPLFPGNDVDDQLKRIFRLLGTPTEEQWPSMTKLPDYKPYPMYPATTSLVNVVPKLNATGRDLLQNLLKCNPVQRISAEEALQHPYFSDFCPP
Sequence of CDK5/p25 (Q15078 99-307 partner limits assumed): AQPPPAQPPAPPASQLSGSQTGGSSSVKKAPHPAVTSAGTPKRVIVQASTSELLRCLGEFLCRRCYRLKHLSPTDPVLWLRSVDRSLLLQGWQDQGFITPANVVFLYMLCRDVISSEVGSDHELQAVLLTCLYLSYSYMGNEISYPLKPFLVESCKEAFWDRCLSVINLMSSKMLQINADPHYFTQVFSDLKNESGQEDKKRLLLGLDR
Sequence of CLK3 (O35492 whole entry): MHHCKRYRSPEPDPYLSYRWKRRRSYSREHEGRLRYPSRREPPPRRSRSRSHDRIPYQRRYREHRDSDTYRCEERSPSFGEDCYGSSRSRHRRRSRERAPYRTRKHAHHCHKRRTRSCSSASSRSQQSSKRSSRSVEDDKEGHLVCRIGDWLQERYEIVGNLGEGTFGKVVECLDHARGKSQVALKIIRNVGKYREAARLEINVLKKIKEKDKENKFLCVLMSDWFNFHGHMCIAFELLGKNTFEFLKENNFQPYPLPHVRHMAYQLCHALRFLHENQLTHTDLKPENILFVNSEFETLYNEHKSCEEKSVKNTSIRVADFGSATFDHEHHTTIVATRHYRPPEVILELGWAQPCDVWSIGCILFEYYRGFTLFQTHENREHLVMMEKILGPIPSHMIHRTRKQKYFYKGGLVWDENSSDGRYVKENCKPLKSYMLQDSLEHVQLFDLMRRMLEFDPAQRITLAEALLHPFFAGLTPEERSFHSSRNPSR
Sequence of CLK2 (O35491 whole entry): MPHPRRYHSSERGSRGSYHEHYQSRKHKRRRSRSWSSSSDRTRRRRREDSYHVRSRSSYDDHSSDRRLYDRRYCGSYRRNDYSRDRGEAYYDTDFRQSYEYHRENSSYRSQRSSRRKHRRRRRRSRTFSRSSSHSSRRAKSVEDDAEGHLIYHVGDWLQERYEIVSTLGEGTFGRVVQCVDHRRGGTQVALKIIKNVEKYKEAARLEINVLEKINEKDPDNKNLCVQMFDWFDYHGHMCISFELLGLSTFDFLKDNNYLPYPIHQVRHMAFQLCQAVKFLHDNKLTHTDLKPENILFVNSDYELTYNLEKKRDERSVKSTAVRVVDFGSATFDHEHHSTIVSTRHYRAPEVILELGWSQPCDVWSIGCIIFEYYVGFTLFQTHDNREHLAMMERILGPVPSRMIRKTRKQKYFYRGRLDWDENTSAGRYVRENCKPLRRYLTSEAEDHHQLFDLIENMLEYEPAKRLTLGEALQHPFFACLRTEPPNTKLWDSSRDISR
T1 sequence (P50750 whole entry): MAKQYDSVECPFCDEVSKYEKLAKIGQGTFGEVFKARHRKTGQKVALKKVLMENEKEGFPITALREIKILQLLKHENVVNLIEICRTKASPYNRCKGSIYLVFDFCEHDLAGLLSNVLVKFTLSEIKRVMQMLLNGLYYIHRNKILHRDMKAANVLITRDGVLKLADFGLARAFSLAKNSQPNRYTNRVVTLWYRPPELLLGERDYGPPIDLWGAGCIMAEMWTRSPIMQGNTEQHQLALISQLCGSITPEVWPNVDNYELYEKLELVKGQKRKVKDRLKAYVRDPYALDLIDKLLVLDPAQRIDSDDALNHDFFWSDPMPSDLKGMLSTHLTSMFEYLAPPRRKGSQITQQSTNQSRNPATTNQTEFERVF
T1 sequence (O60563 whole entry partner): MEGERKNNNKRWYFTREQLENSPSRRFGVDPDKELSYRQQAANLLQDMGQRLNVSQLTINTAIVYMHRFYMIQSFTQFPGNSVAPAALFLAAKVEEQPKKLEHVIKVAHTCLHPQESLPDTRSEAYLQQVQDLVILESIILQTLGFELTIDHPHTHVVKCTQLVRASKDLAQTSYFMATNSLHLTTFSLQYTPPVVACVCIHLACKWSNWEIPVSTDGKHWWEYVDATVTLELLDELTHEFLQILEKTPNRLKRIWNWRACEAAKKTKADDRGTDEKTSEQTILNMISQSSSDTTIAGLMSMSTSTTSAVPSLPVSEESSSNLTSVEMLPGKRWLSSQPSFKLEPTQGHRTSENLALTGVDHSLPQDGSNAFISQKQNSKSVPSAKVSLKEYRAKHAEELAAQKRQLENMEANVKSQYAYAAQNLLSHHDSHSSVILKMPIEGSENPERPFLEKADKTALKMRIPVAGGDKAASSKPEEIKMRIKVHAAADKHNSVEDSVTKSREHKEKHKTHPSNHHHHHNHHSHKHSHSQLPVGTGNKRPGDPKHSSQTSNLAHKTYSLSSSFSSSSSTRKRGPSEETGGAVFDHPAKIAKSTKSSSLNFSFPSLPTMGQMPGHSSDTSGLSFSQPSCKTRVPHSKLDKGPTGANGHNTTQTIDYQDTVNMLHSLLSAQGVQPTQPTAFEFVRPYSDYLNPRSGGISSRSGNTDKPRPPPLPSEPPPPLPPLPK
Sequence of DYRK3 (O43781 whole entry): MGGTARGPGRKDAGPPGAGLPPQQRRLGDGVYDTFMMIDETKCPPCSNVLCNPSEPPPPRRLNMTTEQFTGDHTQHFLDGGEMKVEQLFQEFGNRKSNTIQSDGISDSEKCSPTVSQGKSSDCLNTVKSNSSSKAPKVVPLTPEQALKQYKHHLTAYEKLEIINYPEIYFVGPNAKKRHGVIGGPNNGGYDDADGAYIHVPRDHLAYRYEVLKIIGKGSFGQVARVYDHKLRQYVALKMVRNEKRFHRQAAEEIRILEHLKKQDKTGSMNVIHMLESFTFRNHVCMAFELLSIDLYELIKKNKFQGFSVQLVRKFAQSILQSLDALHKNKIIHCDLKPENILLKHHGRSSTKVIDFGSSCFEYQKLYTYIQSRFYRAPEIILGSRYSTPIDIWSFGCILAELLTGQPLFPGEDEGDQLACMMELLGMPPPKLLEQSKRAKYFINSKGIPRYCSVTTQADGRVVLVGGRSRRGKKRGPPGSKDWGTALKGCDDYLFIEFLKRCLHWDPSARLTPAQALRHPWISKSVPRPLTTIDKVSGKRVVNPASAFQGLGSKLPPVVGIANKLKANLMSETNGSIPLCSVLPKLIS
T2 sequence (P68400 whole entry): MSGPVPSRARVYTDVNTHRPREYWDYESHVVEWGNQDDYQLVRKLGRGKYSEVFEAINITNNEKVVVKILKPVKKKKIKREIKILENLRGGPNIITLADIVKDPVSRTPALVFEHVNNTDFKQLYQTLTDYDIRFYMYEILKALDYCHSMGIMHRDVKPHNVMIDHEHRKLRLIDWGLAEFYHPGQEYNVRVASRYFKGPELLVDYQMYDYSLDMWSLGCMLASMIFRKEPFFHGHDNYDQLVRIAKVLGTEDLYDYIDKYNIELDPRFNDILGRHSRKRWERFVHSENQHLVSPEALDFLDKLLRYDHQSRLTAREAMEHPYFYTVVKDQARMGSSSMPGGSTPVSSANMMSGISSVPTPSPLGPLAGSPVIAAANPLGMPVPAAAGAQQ
Sequence of CLK4 (O35493 whole entry): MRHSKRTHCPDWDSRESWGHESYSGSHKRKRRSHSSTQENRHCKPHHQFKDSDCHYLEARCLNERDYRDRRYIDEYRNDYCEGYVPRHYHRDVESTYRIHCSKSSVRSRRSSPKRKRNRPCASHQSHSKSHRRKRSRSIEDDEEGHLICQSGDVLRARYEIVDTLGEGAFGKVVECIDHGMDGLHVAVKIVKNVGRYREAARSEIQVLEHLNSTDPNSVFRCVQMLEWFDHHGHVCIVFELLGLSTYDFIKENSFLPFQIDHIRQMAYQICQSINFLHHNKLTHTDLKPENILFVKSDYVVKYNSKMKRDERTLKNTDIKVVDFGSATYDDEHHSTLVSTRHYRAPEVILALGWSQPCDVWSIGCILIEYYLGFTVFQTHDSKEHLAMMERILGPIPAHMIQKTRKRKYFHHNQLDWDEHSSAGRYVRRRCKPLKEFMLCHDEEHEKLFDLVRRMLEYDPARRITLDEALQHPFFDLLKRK
Sequence of CLK1 (P22518 whole entry): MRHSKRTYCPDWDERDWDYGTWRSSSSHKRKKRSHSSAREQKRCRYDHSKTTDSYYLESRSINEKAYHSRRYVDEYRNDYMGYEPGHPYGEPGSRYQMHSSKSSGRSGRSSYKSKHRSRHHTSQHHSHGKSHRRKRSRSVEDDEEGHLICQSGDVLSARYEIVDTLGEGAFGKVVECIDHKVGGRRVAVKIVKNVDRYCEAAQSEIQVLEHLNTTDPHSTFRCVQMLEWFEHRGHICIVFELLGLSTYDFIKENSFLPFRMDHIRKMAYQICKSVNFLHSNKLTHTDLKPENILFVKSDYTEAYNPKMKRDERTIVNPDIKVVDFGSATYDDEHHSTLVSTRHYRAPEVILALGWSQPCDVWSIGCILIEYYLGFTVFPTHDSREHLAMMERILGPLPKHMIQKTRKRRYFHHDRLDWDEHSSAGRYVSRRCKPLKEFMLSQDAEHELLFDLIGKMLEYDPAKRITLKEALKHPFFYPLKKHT

Compound | IC50 [1] | IC50 [2] | IC50 [3] | IC50 [4] | IC50 [5] | IC50 [6] | IC50 [7] | IC50 [8] | IC50 [9] | IC50 [10] | IC50 [11] | Behavioural effect in NOR test [12] | Tg(Dyrk1a) brain DYRK1A activity [13] | IC50 [14] | IC50 [15] | IC50 [16] | IC50 [17] | IC50 [18]
O=C(O[C@@H]1Cc2c(O)cc(O)cc2O[C@@H]1c1cc(O)c(O)c(O)c1)c1cc(O)c(O)c(O)c1 [EGCG, epigallocatechin gallate] | 0.33 µM | 0.003 µM | 0.04 µM |  |  |  |  |  |  |  |  |  |  |  |  |  |  | 
O=C1NC(Nc2ccccc2)=N/C1=C\c1ccc2c(c1)OCCCO2 [L43] |  |  |  | > 10 µM | > 10 µM | > 10 µM | > 10 µM | > 10 µM | 7.4 µM | > 10 µM | > 10 µM | lack of effects | did not reduce |  |  |  |  | 
COc1cc(/C=C2\N=C(Nc3ccc(N4CCN(C)CC4)cc3)NC2=O)ccc1O [L99] |  |  |  | > 10 µM | > 10 µM | 0.32 µM | 0.03 µM | 0.7 µM | 0.014 µM | 0.01 µM | > 10 µM | beneficial behavioural effects |  | 0.012 µM | 0.012 µM | 0.02 µM | 0.015 µM | 0.21 µM

— paper PMC6176987, “Correction of cognitive deficits in mouse models of Down syndrome by a pharmacological inhibitor of DYRK1A” (Disease Models & Mechanisms, 2018)
